System: C57BL/6J mice injected with AAV (LacZ transgene)
Assay: In vivo mouse AAV model: CD8 TEM and lacZ tetramer staining of PBMCs and splenocytes
Conditions: chow 100 mg/kg from 15 days prior to AAV, versus AAV group
Protocol: In-vivo mice experiments. C57BL/6J mice were purchased from Jackson Laboratories. 6-8-week male mice were divided into 3 groups—PBS group, AAV group and AAV+IRAK4 group all groups with 10 mice each. Zimlovisertib IRAK4 inhibitor (Synonyms: PF-06650833) Cat. No.: HY-19836 (MedChemExpress) was mixed with mouse chow Catalog #2016, Teklad Global 16% Protein Rodent Diets https://www.inotivco.com/rodent-natural-ingredient-2016-diets at a dose of 30 mg/kg. AAV+IRAK4 group was fed the chow with Zimlovisertib IRAK4 inhibitor 15 days prior to AAV injection whereas PBS and AAV group were fed with mouse chow Catalog #2016, Teklad Global 16% Protein Rodent Diets https://www.inotivco.com/rodent-natural-ingredient-2016-diets. PBS group mice were injected intramuscularly with 100 ul PBS, AAV group was injected intramuscularly with 1e11 vg per quadricep muscle of both legs, 100 ul volume.
The same experiment design was followed with n=6 mice in each group PBS group, AAV group and AAV+IRAK4 degrader PROTAC IRAK4 degrader-1 Cat. No.: HY-129966 (MedChemExpress) that was mixed with chow at 100 mg/kg and fed to mice 15 days prior to AAV injection. […] AAV capsid used in the study had LacZ transgene. All animal experiments were conducted in accordance with the Institutional Animal Care and Use Committees at Sanofi, Framingham. Submandibular bleeds were performed weekly, and necropsy was performed three weeks post AAV injection.
PBMC isolation and surface staining. 120 ul blood was collected in K2EDTA coated tubes. The blood was mixed with DBPS at 1:1 ration and pipetted into a separate tube containing Ficoll (GE17-5442-02) to ensure no mixing of the blood and Ficoll phases. The mixture was centrifuged at 2000 RPM for 25 minutes at room temperature (9 acceleration and no braking). The buffy coat containing the peripheral blood mononuclear cells (PBMCs) was collected, transferred to a new tube, and centrifuged for five minutes at 400 RCF. PBMCs were washed three times with phosphate buffered saline (PBS) containing 1% fetal bovine serum (FBS) or fetal calf serum (FCS) and counted. The PBMC cells thus obtained were stained with different antibodies to quantify percentage of different immune cell subsets in peripheral blood.
PBMC CD8 TEM and lacZ tetramer staining. The PBMC was isolated from ˜120 μl of mouse blood, and it was transferred to a 96-well U-bottom plate. […]

Cn1c(=O)n(C2CCC(=O)NC2=O)c2cccc(C#CCOC3CCN(C[C@H]4CC[C@H](n5cc(NC(=O)c6cnn7ccc(N8C[C@H]9C[C@@H]8CO9)nc67)c(C(F)F)n5)CC4)CC3)c21 (some centres unmarked) [KT-474]
LacZ tetramer positive (transgene LacZ specific CD8 T) cells in PBMCs (14 days post AAV injections): reduced significantly
LacZ tetramer positive (transgene LacZ specific CD8 T) cells in spleen (21 days post AAV injections): reduced significantly

— patent US20230405151A1, “USE OF IRAK4 MODULATORS FOR GENE THERAPY” (Genzyme Corporation, priority 2022, published 2023)
